For one data set, the system named is Glutamate, Kainate. Briefly: Safetyscreen: Glutamate, Kainate. The conditions noted are these: 10 μM. The data set is classed as binding, rat.
The target in data set [1] is T1, Platelet Activating Factor (PAF) (Homo sapiens, UniProt P25105).
T1 construct: Eurofins Cereps Panlabs (contract panel)
Briefly: Safetyscreen: PAF. Format: binding. The conditions noted are these: read-out: % Inh. Platelet Activating Factor (PAF).

Another data set deals with T2, Opiate δ1 (OP1, DOP) (Homo sapiens, UniProt P41143).
T2 construct: Eurofins Cereps Panlabs (contract panel)
T2 sequence (P41143 whole entry): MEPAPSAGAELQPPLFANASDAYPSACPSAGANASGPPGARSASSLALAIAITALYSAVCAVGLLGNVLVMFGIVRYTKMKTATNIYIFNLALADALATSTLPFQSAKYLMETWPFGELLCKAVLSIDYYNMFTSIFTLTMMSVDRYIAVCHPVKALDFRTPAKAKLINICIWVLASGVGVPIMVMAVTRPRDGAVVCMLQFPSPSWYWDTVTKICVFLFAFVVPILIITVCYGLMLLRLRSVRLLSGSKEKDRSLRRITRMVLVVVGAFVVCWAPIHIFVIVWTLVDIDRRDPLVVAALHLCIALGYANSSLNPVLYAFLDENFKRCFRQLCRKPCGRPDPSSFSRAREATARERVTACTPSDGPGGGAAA
Briefly: Safetyscreen: Opiate δ1. The conditions noted are these: read-out: % Inh. Opiate δ1 (OP1, DOP). The data set is classed as binding.

The next data set has as its system Transporter, Adenosine. The data set is described as follows: Safetyscreen: Adenosine transporter. Format: binding, guinea pig. To be noted: 10 μM.
The target of a further data set is T3, Adrenergic α1A (Rattus norvegicus, UniProt P43140).
T3 construct: Eurofins Cerep Panlabs (contract panel)
T3 sequence (P43140 whole entry): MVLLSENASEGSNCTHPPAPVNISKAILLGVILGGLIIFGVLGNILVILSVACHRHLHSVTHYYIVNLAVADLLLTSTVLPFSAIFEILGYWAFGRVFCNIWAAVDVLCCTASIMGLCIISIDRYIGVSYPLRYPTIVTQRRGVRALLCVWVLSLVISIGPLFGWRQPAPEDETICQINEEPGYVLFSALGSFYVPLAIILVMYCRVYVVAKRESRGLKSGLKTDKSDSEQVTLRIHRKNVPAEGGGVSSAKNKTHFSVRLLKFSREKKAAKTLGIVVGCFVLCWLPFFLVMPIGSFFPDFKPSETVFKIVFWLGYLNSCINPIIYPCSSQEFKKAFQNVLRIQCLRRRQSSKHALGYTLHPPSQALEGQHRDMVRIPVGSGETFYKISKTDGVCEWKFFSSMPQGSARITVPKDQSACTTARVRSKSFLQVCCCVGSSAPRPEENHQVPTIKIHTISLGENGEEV
Briefly: Safetyscreen: Adrenergic α1A. The data set is classed as binding. The conditions noted are these: read-out: % Inh. Adrenergic α1A.

The target of data set [2] is T4, Serotonin (5-Hydroxytryptamine) 5-HT1B (Homo sapiens, UniProt P28222).
T4 construct: Eurofins Cereps Panlabs (contract panel)
T4 sequence (P28222 whole entry): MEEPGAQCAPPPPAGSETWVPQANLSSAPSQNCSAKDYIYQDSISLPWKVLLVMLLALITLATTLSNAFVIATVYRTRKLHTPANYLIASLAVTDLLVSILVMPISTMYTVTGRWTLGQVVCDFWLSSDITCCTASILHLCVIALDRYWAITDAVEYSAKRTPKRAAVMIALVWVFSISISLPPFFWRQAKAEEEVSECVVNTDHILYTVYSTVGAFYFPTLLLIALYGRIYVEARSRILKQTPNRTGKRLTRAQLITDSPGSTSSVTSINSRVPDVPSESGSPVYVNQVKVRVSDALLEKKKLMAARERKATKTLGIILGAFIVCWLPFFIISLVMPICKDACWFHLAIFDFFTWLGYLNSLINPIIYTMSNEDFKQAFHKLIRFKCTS
The data set is described as follows: Safetyscreen: 5-HT1B. The conditions noted are these: read-out: % Inh. Serotonin (5-Hydroxytryptamine) 5-HT1B. Format: binding.

For another data set, the system named is Sodium Channel, Site 2. Briefly: Safetyscreen: Sodium Channel, Site 2. Format: binding, rat. To be noted: 10 μM.
In another data set the target is T5, Cyclooxygenase COX-1 (Homo sapiens, UniProt P23219).
T5 construct: Eurofins Cerep Panlabs (contract panel)
T5 sequence (P23219 24-599): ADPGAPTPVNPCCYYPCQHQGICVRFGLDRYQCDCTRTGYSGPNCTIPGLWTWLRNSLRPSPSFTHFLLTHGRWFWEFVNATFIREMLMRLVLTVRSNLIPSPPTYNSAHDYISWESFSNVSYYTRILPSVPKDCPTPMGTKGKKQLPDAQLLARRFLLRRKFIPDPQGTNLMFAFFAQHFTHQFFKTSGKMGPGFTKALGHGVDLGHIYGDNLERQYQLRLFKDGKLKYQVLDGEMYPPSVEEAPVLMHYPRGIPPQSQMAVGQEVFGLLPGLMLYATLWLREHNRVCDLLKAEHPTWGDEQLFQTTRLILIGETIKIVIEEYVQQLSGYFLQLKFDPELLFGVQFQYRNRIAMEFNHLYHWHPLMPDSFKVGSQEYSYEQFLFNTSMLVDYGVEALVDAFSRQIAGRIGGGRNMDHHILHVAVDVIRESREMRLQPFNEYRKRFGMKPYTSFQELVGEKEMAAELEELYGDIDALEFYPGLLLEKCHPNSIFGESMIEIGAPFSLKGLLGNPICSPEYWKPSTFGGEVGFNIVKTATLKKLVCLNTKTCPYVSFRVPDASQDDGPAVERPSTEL
The data set is described as follows: Safetyscreen: COX-1. The data set is classed as biochemical. To be noted: read-out: % Inh. Cyclooxygenase COX-1.

The next data set deals with Huh7 tumors. The data set is described as follows: Huh7 tumors in NU/J mice. Format: in vivo, mouse. Here is the method:
FIGS. 26A-26H: Raldh1-INH suppresses HCC growth by altering macrophage functions. FIG. 26A: Huh7 tumor-bearing NU/J mice were treated with C86 (i.p, 10 mg/kg) every day starting when tumor size was approximately 50 mm^3. Tumor volume was measured every 2 days. […] Three or more independent experiments were performed with at least three replicates per experimental group. Unpaired t test, two-tailed. FIG. 26B: AldeRed assay at endpoint on Huh7 tumor treated as described in FIG. 26A. […] Three or more independent experiments were performed with at least three replicates per experimental group. Unpaired t test, two-tailed. FIG. 26C: Huh7 tumor-bearing nude mice were treated with different dose of C86 every day. Tumor volume was measured every 2-3 days. […] Two independent experiments were performed with at least three replicates per experimental group. Unpaired t test, two-tailed. FIG. 26D: Body weight measured every 3-5 days for the experiment outlined in FIG. 26C. FIG. 26E: Parental Huh7 or RALDH1-KO Huh7 cells were implanted subcutaneously into NU/J mice and treated with C86 (i.p, 10 mg/kg) or vehicle (control) every day. […] Three or more independent experiments were performed with at least three replicates per experimental group. Unpaired t test, two-tailed. FIG. 26F: Huh7 tumor-bearing NU/J mice were treated with clodronate liposomes (CloLipo) and/or C86. […] Two independent experiments were performed with at least three replicates per experimental group. Unpaired t test, two-tailed. FIG. 26G: Murine Hepa 1-6 tumors were implanted subcutaneously into C57BL6/J WT mice or LyMCre:RosadnRAR mice. Expression of the dominant negative RAR in myeloid cells slows tumor growth. Two independent experiments were performed with at least three replicates per experimental group. Unpaired t test, two-tailed. FIG. 26H: Huh7 cells were implanted subcutaneously into NU/J mice. When tumor size reached about 50 mm^3, mice were intraperitoneally injected vehicle (control) or C86 daily with or without BMS493 treatment intratumorally every 3 days. BMS493 and C86 suppress tumor growth with the combination showing higher suppression than monotherapy. *, P<0.05; **, P<0.01; ***, P<0.001; n.s., not significant.
Cultured Huh7, Huh1, Hepa 1-6, Hep55, and FS (as indicated in figure legends) tumor cells were detached using 0.25% trypsin (Gibco, catalog #25200056), washed once with 1×PBS, and counted before implantation. 3~6×10^6 tumor cells were implanted subcutaneously (s.c.) into shaved flanks of recipient mice. Tumor dimensions were measured using a caliper starting at the day indicated in the accompanying figure legend and every two to three days thereafter; volume was calculated by using formula Length*Width^2/2. Tumor volumes of 2,000 mm^3, tumor length of 2 cm or tumor ulceration were used as endpoints for survival analyses.
Compound-86, 97 and 99 powder was dissolved in 20% HPβCD saline (2-Hydroxypropyl)-[…]). Drug was administered i.p. or p.o. starting when tumor volume reached 50-150 mm^3 and repeated every day.

The target of a further data set is T6, Calcium Channel N-Type (Rattus norvegicus, UniProt Q02294).
T6 construct: purchased Eurofins Cereps Panlabs
T6 sequence (Q02294 whole entry): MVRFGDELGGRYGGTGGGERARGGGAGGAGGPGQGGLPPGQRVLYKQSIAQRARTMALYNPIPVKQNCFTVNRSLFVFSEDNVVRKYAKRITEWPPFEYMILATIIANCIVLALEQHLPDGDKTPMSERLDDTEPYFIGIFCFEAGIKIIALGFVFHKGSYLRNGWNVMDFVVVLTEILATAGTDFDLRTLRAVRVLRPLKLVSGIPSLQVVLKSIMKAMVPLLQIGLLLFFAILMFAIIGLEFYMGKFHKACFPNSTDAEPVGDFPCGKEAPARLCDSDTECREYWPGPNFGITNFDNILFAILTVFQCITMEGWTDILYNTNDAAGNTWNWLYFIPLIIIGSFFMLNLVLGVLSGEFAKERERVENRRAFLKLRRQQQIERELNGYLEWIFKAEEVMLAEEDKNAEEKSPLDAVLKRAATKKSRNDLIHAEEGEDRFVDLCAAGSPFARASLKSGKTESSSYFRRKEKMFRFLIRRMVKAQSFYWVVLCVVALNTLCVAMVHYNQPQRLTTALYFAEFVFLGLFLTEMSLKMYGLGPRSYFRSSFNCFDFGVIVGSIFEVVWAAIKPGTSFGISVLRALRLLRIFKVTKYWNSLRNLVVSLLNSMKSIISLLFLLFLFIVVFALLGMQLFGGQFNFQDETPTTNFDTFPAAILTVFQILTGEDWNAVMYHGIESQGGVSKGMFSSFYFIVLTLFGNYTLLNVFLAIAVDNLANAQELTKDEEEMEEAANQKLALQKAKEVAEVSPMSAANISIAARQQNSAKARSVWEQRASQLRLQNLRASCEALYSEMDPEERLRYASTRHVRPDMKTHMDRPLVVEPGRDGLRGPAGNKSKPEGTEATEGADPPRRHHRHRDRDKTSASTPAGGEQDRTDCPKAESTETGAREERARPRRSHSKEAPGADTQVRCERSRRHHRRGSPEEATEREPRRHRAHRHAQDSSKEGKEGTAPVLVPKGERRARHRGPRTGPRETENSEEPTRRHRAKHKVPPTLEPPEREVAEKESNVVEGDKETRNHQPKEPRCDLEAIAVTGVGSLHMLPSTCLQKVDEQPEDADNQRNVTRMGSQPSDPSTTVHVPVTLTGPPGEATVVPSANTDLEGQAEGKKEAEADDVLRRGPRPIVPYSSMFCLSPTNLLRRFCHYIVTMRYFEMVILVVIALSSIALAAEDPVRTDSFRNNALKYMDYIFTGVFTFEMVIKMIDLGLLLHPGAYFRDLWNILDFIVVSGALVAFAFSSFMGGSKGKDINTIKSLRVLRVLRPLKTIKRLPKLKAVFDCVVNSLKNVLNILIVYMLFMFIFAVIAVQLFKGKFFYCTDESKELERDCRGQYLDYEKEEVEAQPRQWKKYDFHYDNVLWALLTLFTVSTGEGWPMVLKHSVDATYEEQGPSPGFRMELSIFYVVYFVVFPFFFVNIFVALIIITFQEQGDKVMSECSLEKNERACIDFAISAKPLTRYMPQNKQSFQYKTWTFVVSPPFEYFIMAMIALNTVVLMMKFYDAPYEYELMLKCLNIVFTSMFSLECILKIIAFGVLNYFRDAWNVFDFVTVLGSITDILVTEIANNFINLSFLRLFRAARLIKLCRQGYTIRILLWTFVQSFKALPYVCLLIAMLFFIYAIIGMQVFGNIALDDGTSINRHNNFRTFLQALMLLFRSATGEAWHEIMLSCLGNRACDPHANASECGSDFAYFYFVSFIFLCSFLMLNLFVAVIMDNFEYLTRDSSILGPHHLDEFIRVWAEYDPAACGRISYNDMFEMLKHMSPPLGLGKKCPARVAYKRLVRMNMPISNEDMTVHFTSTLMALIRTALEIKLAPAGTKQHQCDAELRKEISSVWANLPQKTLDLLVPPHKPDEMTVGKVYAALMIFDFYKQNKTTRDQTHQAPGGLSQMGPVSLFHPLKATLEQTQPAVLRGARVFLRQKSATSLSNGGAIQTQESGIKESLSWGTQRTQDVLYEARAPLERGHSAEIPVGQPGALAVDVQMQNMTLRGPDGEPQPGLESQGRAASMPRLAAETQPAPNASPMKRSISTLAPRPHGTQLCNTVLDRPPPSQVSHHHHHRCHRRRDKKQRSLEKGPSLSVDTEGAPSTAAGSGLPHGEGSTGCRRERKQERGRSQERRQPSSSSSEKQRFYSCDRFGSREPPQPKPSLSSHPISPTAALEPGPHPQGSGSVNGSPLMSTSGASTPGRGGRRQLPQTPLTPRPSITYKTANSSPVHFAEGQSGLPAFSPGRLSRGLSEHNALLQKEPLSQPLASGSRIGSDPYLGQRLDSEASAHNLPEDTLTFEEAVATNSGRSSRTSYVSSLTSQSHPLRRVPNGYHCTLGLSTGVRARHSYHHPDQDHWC
The data set is described as follows: Safetyscreen: Ca channel N-type. The conditions noted are these: read-out: % Inh. Calcium Channel N-Type. Format: binding.

The target of data set [3] is T7, Leukotriene, Cysteinyl CysLT1 (Homo sapiens, UniProt Q9Y271).
T7 construct: purchased Eurofins Cereps Panlabs
T7 sequence (Q9Y271 whole entry): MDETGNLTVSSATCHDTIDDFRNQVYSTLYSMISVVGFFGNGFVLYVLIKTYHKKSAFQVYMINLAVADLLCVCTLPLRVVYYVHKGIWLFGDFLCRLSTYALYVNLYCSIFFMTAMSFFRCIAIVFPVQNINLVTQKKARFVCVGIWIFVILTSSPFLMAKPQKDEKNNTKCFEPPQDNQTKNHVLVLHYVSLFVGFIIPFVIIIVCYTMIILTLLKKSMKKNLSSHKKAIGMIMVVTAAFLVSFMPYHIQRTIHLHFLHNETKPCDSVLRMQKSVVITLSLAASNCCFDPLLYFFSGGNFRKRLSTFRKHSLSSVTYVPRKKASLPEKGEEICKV
The data set is described as follows: Safetyscreen: CysLT1. Format: binding. The conditions noted are these: read-out: % Inh. Leukotriene, Cysteinyl CysLT1.

Data set [4] concerns GABAA, Ro-15-1788, Hippocampus. The data set is described as follows: Safetyscreen: GABAA, Ro-15-1788. Format: binding, rat. The conditions noted are these: 10 μM.
The mark [5] stands for this setting: Huh7 tumor-bearing nude mice, once daily dosing.

The structures appear in SMILES notation.

T1 sequence (P25105 whole entry): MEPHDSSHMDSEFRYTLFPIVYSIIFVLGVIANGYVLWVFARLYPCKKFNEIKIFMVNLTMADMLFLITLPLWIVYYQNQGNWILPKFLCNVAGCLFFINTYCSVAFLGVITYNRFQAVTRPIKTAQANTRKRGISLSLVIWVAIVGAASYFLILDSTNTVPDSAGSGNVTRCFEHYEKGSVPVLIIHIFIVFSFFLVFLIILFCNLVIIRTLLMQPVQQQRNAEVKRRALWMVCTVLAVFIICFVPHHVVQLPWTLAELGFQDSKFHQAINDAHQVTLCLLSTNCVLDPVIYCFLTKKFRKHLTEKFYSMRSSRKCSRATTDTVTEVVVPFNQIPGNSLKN

As for `CS(=O)(=O)N1CCN(C(=O)c2cnc3ccc(F)cc3c2N2CCC(C#N)(c3ccccc3)CC2)CC1` [Compound C-86, 1-(6-fluoro-3-(4-(methylsulfonyl)piperazine-1-carbonyl)quinolin-4-yl)-4-phenylpiperidine-4-carbonitrile], the “% Inh. Glutamate, Kainate” value in the data set with Glutamate, Kainate is 11%. In addition, the inhibition at 10 µM is 32% in data set [1]; 2% on Opiate δ1 (OP1, DOP); 6% on Adrenergic α1A; -21% in [2]; 6% at Cyclooxygenase COX-1; 6% at Calcium Channel N-Type. Further, the inhibition at 10 µM in [3] was determined as 5%. The “% Inh. Transporter, Adenosine” value with Transporter, Adenosine is 56%. The “% Inh. Sodium Channel, Site 2” value in the data set with Sodium Channel, Site 2 worked out at 21%. For the same compound, the “tumor mass and volume” value with Huh7 tumors (Huh7, C-86 versus C-97 (FIGS. 17A-17B)) was “significant reduction in tumor mass and volume”; with Huh7 tumors (Huh7, intraperitoneal administration, compared to a control (FIGS. 12B-12C)), “significant reduction in tumor mass and volume”. For the same compound, in the data set on Huh7 tumors (Huh7, FIGS. 13A-13B), the “dose dependence of effect on tumor volume and tumor mass” value is given as “dose-dependent effect”. Besides, in the data set with Huh7 tumors (Huh7, TAM depletion with CloLipo), the “tumor suppression in the absence of TAMs” value is given as “did not further suppress tumors”. In the data set with Huh7 tumors (Huh7, macrophage depletion study (FIG. 14B)), the tumor mass entry was “significant reduction in tumor mass”. The “dose at which weight loss was observed” value in the data set with Huh7 tumors (setting [5]) was 40 mg/kg. Further, the “dose with tumor suppressive effects” value in the data set with Huh7 tumors (setting [5]) is on record as more than 10 mg/kg. Moreover, in the data set with Huh7 tumors (Huh7 tumors, CD45− cells), the “RALDH activity in tumor cells (AldeRed at endpoint)” value is given as “reduced RADLH activity”. In addition, in the data set on Huh7 tumors (RALDH1-KO Huh7, i.p, 10 mg/kg every day), the “response of RALDH1-KO HCC tumors to therapy” value is reported as “did not respond”. Also, in the data set with Huh7 tumors (huh7 in immunodeficient mice, i.p, 10 mg/kg every day), the tumor inhibition entry is listed as “significant tumor inhibition”. Further, in data set [4], the “% Inh. GABAA, Ro-15-1788, Hippocampus” value is listed as −7%.

Values taken from patent publication US20260248799A1, “COMBINATIONS OF RETINALDEHYDE DEHYDROGENASE 1 (RALDH1) INHIBITORS AND IMMUNOSTIMULATORS AND METHODS USING SAME” (The Trustees of the University of Pennsylvania, priority 2023, published 2026).
